Results published in patent US20240336654A1, “ANTIMICROBIAL PEPTIDOMIMETICS” (SPEXIS AG, priority 2021, published 2024).
Where a SMILES comes first, the peptide text is derived from it. Bridges are numbered along the chain shown (N, C = ends). [ ]: non-standard residue; d: D form. The star is where a group is joined. Val(Nα-amidino) = CC(C)[C@H](NC(=N)N)C(=O)*; Hyp = O=C(O)[C@@H]1C[C@@H](O)CN1; Pen = CC(C)(S)[C@H](N)C(=O)O; ΔPro = O=C(O)[C@@H]1C=CCN1; dDab = NCC[C@@H](N)C(=O)O; Dab = NCC[C@H](N)C(=O)O

Assays:
Assay type in all cases: cell-based
[1] = test system: human red blood cells (hRBC); settings: red cells of human, 1 h, 200 μg/mL
Outline: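 Peptides at 200 μg/mL incubated 1 h at 37 °C with 20% (v/v) washed human RBC, shaking. Hemolysis from supernatant OD540, expressed as percent of 2.5% Triton X-100 lysis, with PBS as 0%.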

[2] = test system: Klebsiella pneumoniae SSI3010; settings: SSI3010
Outline: (§1)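 The MIC is the lowest peptide concentration, in μg/mL, with no visible growth after 18-20 h incubation at 35 °C. Serial two-fold peptide dilutions in water with 0.002% P-80 final were added to bacteria in cation-adjusted MHII broth, about 5×10^5 CFU/mL, following modified CLSI microdilution.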

[3] = test system: Escherichia coli ATCC 25922; settings: ATCC 25922
Outline: as §1

[4] = test system: Escherichia coli MCR-1 Af 45; settings: MCR-1 Af 45
Outline: as §1

Compound | Hemolysis at 0.2 g/L [1] | Klebsiella pneumoniae SSI3010 MIC [2] | Escherichia coli ATCC 25922 MIC [3] | Escherichia coli MCR-1 Af45 MIC [4]
CC[C@H](C)[C@H](NC(=O)[C@@H]1C=CCN1C(=O)[C@@H](NC(=N)N)C(C)C)C(=O)N[C@@H]1C(=O)N[C@@H](Cc2ccc(O)cc2)C(=O)N[C@@H]([C@@H](C)O)C(=O)N[C@@H](CC(N)=O)C(=O)N[C@@H](CCCNC(=N)N)C(=O)N[C@@H](CCN)C(=O)N[C@@H]([C@@H](C)O)C(=O)N[C@H](CCN)C(=O)N[C@@H](CCCCN)C(=O)N[C@@H](CCN)C(=O)N[C@@H](CCN)C(=O)N[C@H](C(=O)N[C@@H](Cc2ccc(O)cc2)C(=O)O)CSSC1(C)C [Example 109, Gua-Val-Pro(3,4dehydro)-Ile-Pen-Tyr-Thr-Asn-Arg-Dab-Thr-^DDab-Lys-Dab-Dab-Cys-Tyr] ({Val(Nα-amidino)}-[ΔPro]I[Pen]YTNR[Dab]T[dDab]K[Dab][Dab]CY-OH; disulfide 3-14) | <1% | 0.125 µg/mL | 0.0625 µg/mL | 0.03125 µg/mL
CC[C@H](C)[C@H](NC(=O)[C@@H]1C=CCN1C(=O)[C@@H](NC(=N)N)C(C)C)C(=O)N[C@@H]1C(=O)N[C@@H](Cc2ccc(O)cc2)C(=O)N[C@@H](CO)C(=O)N[C@@H](CC(N)=O)C(=O)N[C@@H](CCCNC(=N)N)C(=O)N[C@@H](CCN)C(=O)N[C@@H]([C@@H](C)O)C(=O)N[C@H](CCN)C(=O)N[C@@H](CCCCN)C(=O)N[C@@H](CCN)C(=O)N[C@@H](CCN)C(=O)N[C@H](C(=O)N[C@@H](Cc2ccc(O)cc2)C(=O)O)CSSC1(C)C [Example 110, Gua-Val-Pro(3,4dehydro)-Ile-Pen-Tyr-Ser-Asn-Arg-Dab-Thr-^DDab-Lys-Dab-Dab-Cys-Tyr] ({Val(Nα-amidino)}-[ΔPro]I[Pen]YSNR[Dab]T[dDab]K[Dab][Dab]CY-OH; disulfide 3-14) | <1% | 0.125 µg/mL | 0.0625 µg/mL | 0.0625 µg/mL
CC[C@H](C)[C@H](NC(=O)[C@@H]1C=CCN1C(=O)[C@@H](NC(=N)N)C(C)C)C(=O)N[C@@H]1C(=O)N[C@@H](Cc2ccc(O)cc2)C(=O)N[C@@H]([C@@H](C)O)C(=O)N[C@@H](CC(N)=O)C(=O)N[C@@H](CCCNC(=N)N)C(=O)N[C@@H](CCN)C(=O)N[C@@H]([C@@H](C)O)C(=O)N[C@H](CCN)C(=O)N[C@@H](CO)C(=O)N[C@@H](CCN)C(=O)N[C@@H](CCN)C(=O)N[C@H](C(=O)N[C@@H](Cc2ccc(O)cc2)C(=O)O)CSSC1(C)C [Example 111, Gua-Val-Pro(3,4dehydro)-Ile-Pen-Tyr-Thr-Asn-Arg-Dab-Thr-^DDab-Ser-Dab-Dab-Cys-Tyr] ({Val(Nα-amidino)}-[ΔPro]I[Pen]YTNR[Dab]T[dDab]S[Dab][Dab]CY-OH; disulfide 3-14) | <1% | 0.125 µg/mL | 0.125 µg/mL | 0.0625 µg/mL
CC[C@H](C)[C@H](NC(=O)[C@@H]1C[C@@H](O)CN1C(=O)[C@@H](NC(=N)N)C(C)C)C(=O)N[C@H]1CCNC(=O)CC[C@@H](C(=O)N[C@@H](Cc2ccc(O)cc2)C(=O)O)NC(=O)[C@H](CCN)NC(=O)[C@H](CCN)NC(=O)[C@H](CO)NC(=O)[C@@H](CCN)NC(=O)[C@H]([C@@H](C)O)NC(=O)[C@H](CCN)NC(=O)[C@H](CCCNC(=N)N)NC(=O)[C@H](CC(N)=O)NC(=O)[C@H]([C@@H](C)O)NC(=O)[C@H](Cc2ccc(O)cc2)NC1=O [Example 112, Gua-Val-Hyp-Ile-Dab-Tyr-Thr-Asn-Arg-Dab-Thr-^DDab-Ser-Dab-Dab-Glu-Tyr] ({Val(Nα-amidino)}-[Hyp]I[Dab]YTNR[Dab]T[dDab]S[Dab][Dab]EY-OH; lactam 3-14) | <1% | 0.25 µg/mL | 0.125 µg/mL | 0.125 µg/mL
